In patent US20240180955A1, “FIBER SUPPLEMENTATION PROTECTS FROM ANTIBIOTIC-INDUCED GUT MICROBIOME DYSBIOSIS BY MODULATING REDOX METABOLISM” (Brown University, priority 2022, published 2024):
Where a name gives a salt, the structure may show the parent alone.

Experiments:
E. coli (MG1655) = assay: NAD+/NADH reporter: E. coli reporter assay; format: cell-based, Escherichia coli
Procedure: NAD+/NADH reporter: E. coli reporter assay. The NAD+/NADH reporter plasmid (Liu et al., 2019) was transformed into E. coli (MG1655) for growth and fluorescence assays. Overnight cultures of E. coli were diluted 1:1000 in fresh Luria Broth. The diluted cultures were allowed to grow to 0.2 OD before treatment with amoxicillin and metformin. Fluorescence and growth (in OD) were measured in parallel using two plate readers. Data is shown with fluorescence normalized to growth and as separate growth and fluorescence curves.
This ratio is a stand in for cellular bioenergetics with a high ratio indicative of increased catabolism
The inventors then treated these bacteria with metformin and measured their growth and fluorescence. […] Dwyer et al. (2014). […] Stynen et al. (2018).

[1] = Redox potential (eH) and pH measurements of cecal contents; format: in vivo, C57BL/6J mice; conditions: mice on standard chow diet
Procedure: Mouse assays. C57BL/6J mice following the habituation period were given one week to acclimate to the control 0-fiber diet with 20% (w/w) glucose. After this diet acclimation period, mice were randomized into new cages for each diet/antibiotic condition. Amoxicillin was administered via drinking water (25 mg/kg/day) ad libitum for the specified timepoints. All drinking water was filter-sterilized before administration. Fecal samples were collected at the specified timepoints and stored at −20° C. until nucleic acid extraction. Cecum contents were collected directly into bead-bashing tubes with DNA/RNA shield (Zymo Research, Irvine, CA, USA) and stored at −80° C. for nucleic acid extraction. […]
Redox potential and pH measurements. Redox potential was measured according to a modified protocol from Husson (2012); Husson et al. (2016) with an Ag/AgCl Reference electrode (Radiometer analytical E21M002, Radiometer Analytical Pt plate electrode 5×5 mm M241 Pt), and a voltmeter. […] The samples were blinded and measured in random order. […]
The platinum electrode was inserted into each sample. […] The same cecal extracts were used to measure pH using a PH meter and for subsequent validation with ATP assays, 16S rRNA sequencing and quantitative polymerase chain reaction (qPCR) bacterial load. […]

murine gut microbiome = assay: Oats diet with amoxicillin challenge, 16S rRNA sequencing of fecal pellets (Example 11); format: in vivo, C57BL/6J mice; conditions: Day 5, across each diet group
From the text: In Example 11, mice were fed LabDiet 5001 (LD01; LabDiet, St. Louis, MO, USA) feed pellets for a 2-week habituation period. For experimental diets, a custom base diet reflecting standard mouse chow fiber content was designed (Envigo-Teklad, Madison, WI, USA). The base diet modifies AlN-93G (TD.180901) by removing all cellulose and reducing cornstarch content while adjusting micro- and macronutrient contents so the diet could be an 80% base for 20% (wt/wt) supplementation with other carbon sources. Buffalo cornstarch (Ingredion Incorporated, IL, USA) was used to increase host accessibility and reduce cornstarch availability in the cecum and lower gastrointestinal tract. […]
In Example 11, total DNA and RNA was liberated from bacteria by bead-bashing fecal or cecum samples for 5 min on a Bead Ruptor 96 (Omni International, Kennesaw, GA). […] Nucleic acids were eluted in nuclease-free water and measured using the double-stranded DNA high sensitivity (dsDNA-HS) or RNA-HS kits on a Qubit 3.0 fluorometer (Thermo Fisher Scientific, Waltham, MA, USA).
In Example 11, the 16S rRNA gene V4 region was amplified from fecal total DNA using barcoded 515F forward and indexed 806R reverse primers as described by Parada, Needham, & Fuhrman, Environ. […] Amplicons were verified by gel electrophoresis, measured on the Qubit 3.0 and pooled in equimolar concentrations. […]

E. coli = assay: Amoxicillin kill curve in E. coli; format: cell-based, Escherichia coli; conditions: aerobic, increasing concentrations of metformin
Procedure: Bacterial strains. Bacteroides thetaiotaomicron (VPI-5482) can be obtained from the American Type Culture Collection (ATCC; Manassas, VA, USA). Bacteroides theta was cultured in modified Gifu Anaerobic Media (mGAM, HyServe). Escherichia coli (MG1655) was cultured in Luria Broth (Fisher Scientific, Waltham, MA, USA). Anaerobic assays were cultured in a BactronEZ anaerobic chamber (Sheldon Manufacturing, Cornelius, OR, USA) under an atmosphere of 5% H2, […]. All bacteria were grown at 37° C.
Amoxicillin kill curves in E. coli and B. theta. Kill Curves for E. coli were done in an aerobic environment and for B. theta in the anaerobic chamber. Overnight cultures s were grown in Luria Broth (E. coli) or mGAM (B. theta). Overnight cultures were diluted 1:100 in fresh media. They were allowed to grow to 0.2 OD before treatment with amoxicillin and metformin. Samples were grown at 37° C. and plated every two hours for six hours in serial dilutions. Colony forming units (CFUs) were measured the following day.
The inventors then tested the survival of bacteria treated with metformin against amoxicillin. […] These assays were conducted aerobically in E. coli.

[2] = test system: Bacteroides thetaiotaomicron; assay: Amoxicillin kill curve in B. theta; format: cell-based; conditions: anaerobic
Procedure: Bacteroides theta was cultured in modified Gifu Anaerobic Media (mGAM, HyServe). […] Anaerobic assays were cultured in a BactronEZ anaerobic chamber (Sheldon Manufacturing, Cornelius, OR, USA) under an atmosphere of 5% H2, 5% N2, and 90% CO2. All bacteria were grown at 37° C.

[3] = Mass spectrometry for metformin measurement in serum, liver and cecum; format: in vivo, C57BL/6J mice; conditions: low-fiber glucose diet with 100 mg/kg metformin hydrochloride, five days, LC/MS
Procedure: (§1) Metformin in vivo supplementation. Metformin hydrochloride (Fisher Scientific, Waltham, MA, USA) was added to powdered mouse diet at 100 mg/kg (w/w) or 0.1% in the glucose diet and homogenized before administration to mice via feeding jars. In the chow diet metformin was added 50 mg/kg (w/w) or 0.05%.
Mass spectrometry for metformin measurement. Plasma, liver and cecal samples were collected for from the sacrificed mice in the two metformin supplementation assays (n=6 mice per group, twenty-four mice/assay). The liver was perfused with phosphate-buffered saline upon collection and the tissue was homogenized with reverse osmosis-purified water at 1 mg/10 μL using a Bead Ruptor at speed 30 for five minutes. Supernatants from the homogenate was collected after centrifugation at 2000×g for five minutes to pellet beads. Cecal contents were also homogenized with reverse osmosis-purified water at 1 mg/10 μL, and supernatants were used for analysis. Metformin extraction and mass spec protocol modified from Chaudhari et al. (2020). For metformin extraction, 30 μL of cecal/tissue homogenates or plasma were added to 70 μL of D6-metformin ([sequence]) at 250 μM concentration in methanol. […]
Metformin in biological samples after spiking with D6-metformin ([sequence]) and extraction was quantitated with HPLC-MS on an Ultimate 3000, Dionex coupled to Q Executive Classic (Thermo Fisher) with ESI interface. […]

gut microbiome = assay: Metformin in vivo supplementation during antibiotic treatment, 16S rRNA sequencing of cecal contents; set-up: species or system C57BL/6J mice
Procedure: Mouse assays. C57BL/6J mice following the habituation period were given one week to acclimate to the control 0-fiber diet with 20% (w/w) glucose. After this diet acclimation period, mice were randomized into new cages for each diet/antibiotic condition. Amoxicillin was administered via drinking water (25 mg/kg/day) ad libitum for the specified timepoints. All drinking water was filter-sterilized before administration. Fecal samples were collected at the specified timepoints and stored at −20° C. until nucleic acid extraction. Cecum contents were collected directly into bead-bashing tubes with DNA/RNA shield (Zymo Research, Irvine, CA, USA) and stored at −80° C. for nucleic acid extraction. For the redox potential (eH) and pH measurements, total cecal contents were immediately flash frozen in liquid nitrogen and lyophilized and stored at −80° C. until measurements were taken.
16S rRNA amplicon preparation and sequencing. The 16S rRNA V4 hypervariable region was amplified from total DNA using the barcoded 515F forward primer and the 806R reverse primers from the Earth Microbiome Project (Thompson et al., 2017). Amplicons were generated using 5× Phusion High-Fidelity DNA Polymerase under these cycling conditions: (1) initial denaturation at 98 °C for thirty seconds, followed by (2) twenty-five cycles of 98 °C for ten seconds, 57 °C for thirty seconds, and 72° C. for thirty seconds, then (3) a final extension at 72 °C for five minutes. Gel electrophoresis was used to visualize amplicons and pooled in equimolar amounts. The pooled amplicon library was submitted to the Rhode Island Genomics and Sequencing Center at the University of Rhode Island (Kingston, RI, USA) for sequencing on the Illumina MiSeq platform. Amplicons were paired-end sequenced (2×250 bp) using the 600-cycle kit with standard protocols. Raw reads were deposited in the NCBI Sequence Read Archive (SRA).
16S sequencing analysis. Raw 16S rRNA reads were first demultiplexed with idemp. Quality filtering, trimming, de-noising with DADA2 (q2-dada2). […] Merging was done using the Qiime2 pipeline (version 2019.10). […] Ribosomal sequence variants were aligned with mafft (q2-alignment). […] Phylogenetic tree construction was done with fasttree2 (q2-phylogeny). […] Taxonomic assignment was conducted using the pre-trained Naive Bayes classifier and the q2-feature-classifier (Bokulich et al., 2018) trained on the SILVA 132 99% database. […] Alpha diversity (Shannon, Faith's phylogenetic diversity) and beta diversity (Bray-Curtis dissimilarity) were calculated using the phyloseq package (version 1.30.0) in R (version 3.6.2).
as §1
The inventors used metformin supplemented diets and supplemented the control low-fiber diet with 100 mg/kg of metformin hydrochloride (MPI Chemicals) during antibiotic treatment for five days.
The inventors then extracted DNA from the cecal contents of mice Day 1 and Day 5 following antibiotic treatment and used 16S rRNA sequencing to investigate changes in gut microbiome composition.

CC1(C)S[C@@H]2[C@H](NC(=O)[C@H](N)c3ccc(O)cc3)C(=O)N2[C@H]1C(=O)O [amoxicillin, Amoxicillin]
NADH reporter fluorescence (NADH/NAD+ ratio) (E. coli (MG1655); E. coli, antibiotic treatment): significantly increased fluorescence | chemical redox of cecal contents [1]: increased the chemical redox | relative proportion of Bacteroidota and Verrucomicrobiota compared to controls (murine gut microbiome): Bacteroidota receded and that of Verrucomicrobiota increased

CN(C)C(=N)N=C(N)N [metformin, Metformin hydrochloride]
NADH reporter fluorescence (NADH/NAD+ ratio), effect on the antibiotic-induced increase (E. coli (MG1655); E. coli treated with amoxicillin and metformin): suppressed this increase | survival of bacteria challenged with amoxicillin (E. coli): improved the survival of bacteria | protection from amoxicillin (kill curve) [2]: significant protection from amoxicillin | metformin levels in cecum, liver and serum [3]: significantly higher in the cecum compared to the liver and serum | Desulfobacterota and Cyanobacteria phyla abundance (gut microbiome; all metformin treatment groups, low-fiber glucose diet and laboratory chow): complete depletion | antibiotic-induced decrease in diversity (Shannon) (gut microbiome; glucose diet with metformin, Day 1 and Day 5 of antibiotic treatment): smaller decrease in diversity | Proteobacteria at Day 5 of antibiotic treatment (gut microbiome; glucose diet, metformin plus antibiotic, Day 5): bloom in Proteobacteria in the Moraxellaceae family | bacterial diversity, metformin alone (gut microbiome; glucose diet, no antibiotics, Day 5): significant changes in bacterial diversity | initial spike in Proteobacteria during antibiotic treatment (gut microbiome; glucose low-fiber diet, Day 1): prevented the initial spike in Proteobacteria | reduction in microbial diversity during antibiotic treatment (gut microbiome; laboratory chow with metformin): smaller reduction in microbial diversity
